Counter-ions that a name gives are not always drawn. ± gives the uncertainty stated by the source.
Tests used:
THP-1 [1] = assay: AC50 of IL-8 secretion induction; higher = less potent; details: exposure time: 18 h
[2] = system: KeratinoSens (HaCaT ARE-luciferase) cells; assay: cytotoxicity AC50 (CellTiter-Fluor viability); higher = less cytotoxic; details: exposure time: 24 h
THP-1 [3] = assay: efficacy of IL-8 induction relative to DMSO (% activity); higher = stronger induction; details: exposure time: 18 h
[4] = system: lysine peptide Ac-RFAAKAA-COOH; assay: efficacy of lysine peptide change (negative = depletion) (% activity); higher = less depletion; details: incubation time: 24 h
[5] = system: cysteine peptide Ac-RFAACAA-COOH; assay: efficacy of cysteine peptide change (negative = depletion) (% activity); higher = less depletion; details: incubation time: 24 h
[6] = system: KeratinoSens (HaCaT ARE-luciferase) cells; assay: efficacy of ARE luciferase induction relative to DMSO (% activity over DMSO); higher = stronger induction; details: exposure time: 24 h
[7] = system: cysteine peptide Ac-RFAACAA-COOH; assay: AC50 of cysteine peptide concentration-response (direction given by sign of efficacy); higher = less potent; details: incubation time: 24 h
[8] = system: KeratinoSens (HaCaT ARE-luciferase) cells; assay: AC50 of Nrf2/ARE luciferase induction; higher = less potent; details: exposure time: 24 h

SMILES | efficacy of lysine peptide change [4] | efficacy of cysteine peptide change [5] | AC50 [7] [µM] | AC50 of IL-8 secretion induction (THP-1 [1]) [µM] | cytotoxicity AC50 [2] [µM] | efficacy of IL-8 induction (THP-1 [3]) | efficacy of ARE luciferase induction [6] | AC50 of Nrf2/ARE luciferase induction [8] [µM]
Clc1nc(C(Cl)(Cl)Cl)c(Cl)c(Cl)c1Cl [2,3,4,5-Tetrachloro-6-(trichloromethyl)pyridine] | 1.85 ± 3.2 | -2.03 ± 3.5 |  | 47.3 | 37.1 ± 4.7 | 33.7 ± 5.8 | 43.7 ± 28 | 
O=[N+]([O-])c1cc(C(F)(F)F)c(Cl)c([N+](=O)[O-])c1Cl [2,4-Dichloro-1,3-dinitro-5-(trifluoromethyl)benzene] | 251 ± 34 | -83.7 ± 9 | 23.8 ± 18 | 17.2 | 26.1 ± 1.8 | 64.7 ± 13 | -10.8 ± 42 | 
c1ccc2sc(SSN3CCOCC3)nc2c1 [2-(Morpholin-4-yldithio)-1,3-benzothiazole] |  |  |  | 59.9 |  | 58 ± 8.8 | 57.3 ± 29 | 
O=c1cc(-c2ccccc2)oc2ccc3ccccc3c12 [5,6-Benzoflavone] |  |  |  | 79.4 |  | 98 ± 14 | -34.9 ± 4.2 | 
CCCCNC(=O)OCC#CI [Carbamic acid, butyl-, 3-iodo-2-propynyl ester] | 64.6 ± 18 | -92.5 ± 3.8 | 1.05 ± 0.13 |  | 37.1 ± 4.7 | 20.3 ± 4.5 | 133 ± 50 | 27.3
C/C=C/C=C/CCCCCCCO [Codlelure] | 20.6 ± 4.8 | -104 ± 14 | 28.6 ± 15 |  | 44.9 ± 5.2 | 8.57 ± 7.8 | 1300 ± 400 | 73.7
CN(C)S(=O)(=O)N(SC(F)(Cl)Cl)c1ccccc1 [Dichlofluanid] | 62.1 ± 23 | -92.1 ± 5 | 1.96 ± 0.48 |  | 27.2 ± 1.8 | 19.9 ± 4.2 | 169 ± 52 | 15.8
O=[N+]([O-])c1ccc(Oc2ccc(C(F)(F)F)cc2[N+](=O)[O-])cc1 [Fluorodifen] | 2.81 ± 12 | -4.44 ± 7.7 |  | 43.1 | 29.6 ± 5.3 | 109 ± 12 | 45.8 ± 80 | 
N#C/C=C/C#N [Fumaronitrile] | -12.4 ± 34 | -104 ± 7.3 | 3.3 ± 0.42 |  | 23.1 ± 6.4 | 8.38 ± 7.6 | 193 ± 39 | 32.9
CC(O)C#CC(C)O (configuration not stated) [Hex-3-yne-2,5-diol] | -5.13 ± 15 | -101 ± 4.2 | 4.16 ± 0.53 | 41.4 | 32.9 ± 2.2 | 62.2 ± 17 | -35.2 ± 7.1 | 
c1ccc2c(c1)OCC(C1=NCCN1)O2 (configuration not stated) [Idazoxan] | -1.64 ± 20 | -124 ± 14 | 27.3 ± 3.8 |  | 22.4 | 12.4 ± 3.5 | 39.9 ± 3.1 | 12.6
[CH3][Hg][Cl] [Methyl mercuric (II) chloride] | 0 | -97.5 ± 1.4 | 46.5 ± 3.1 |  | 6.57 ± 0.44 | 73.6 ± 0.91 | 188 ± 110 | 3.98
CCCCNC(=S)NCCCC [N,N'-Dibutylthiourea] | 85.4 ± 13 | -32.7 ± 21 |  | 89.1 | 62 ± 25 | 90.2 ± 38 | 41.8 ± 35 | 
S=C(NC1CCCCC1)NC1CCCCC1 [N,N'-Dicyclohexylthiourea] | -53.1 ± 24 | 5.83 ± 10 |  | 85.9 | 53.1 ± 25 | 84.8 ± 36 | 82 ± 95 | 
c1ccc(Nc2ccc(Nc3ccccc3)cc2)cc1 [N,N'-Diphenyl-p-phenylenediamine] | -22.2 ± 3.3 | -119 ± 12 | 23 ± 18 |  | 55.2 ± 14 | 9.77 ± 9.9 | 54.7 ± 14 | 22.5
c1ccc2sc(SNC3CCCCC3)nc2c1 [N-Cyclohexyl-2-benzothiazolesulfenamide] | 24.6 ± 4.2 | -89.9 ± 7 | 11.1 ± 3.1 | 85.9 |  | 101 ± 42 | 135 ± 140 | 
COP(=O)(OC)OC(Br)C(Cl)(Cl)Br (configuration not stated) [Naled] | -3.08 ± 5.3 | -89.9 ± 2.4 | 0.93 ± 0.12 |  | 46.5 ± 3.1 | 8.61 ± 7.6 | 307 ± 93 | 31.8
C=CC(=O)OCC(COC(=O)C=C)(COC(=O)C=C)COC(=O)C=C [Pentaerythritol tetraacrylate] | -27.5 ± 6 | -102 ± 14 | 3.11 ± 0.76 |  | 25.3 ± 4.1 | 23.5 ± 10 | 118 ± 5.8 | 15.8
O=C1OC(CCN2CCCCC2)OC1(c1ccccc1)c1ccccc1 (configuration not stated) [Pipoxolan hydrochloride] | -49.6 ± 25 | -104 ± 2.6 | 4.43 ± 1.9 |  | 33.5 ± 2.7 | 0 | 107 ± 83 | 20.7

Continued, in another order:

efficacy of lysine peptide change [4] | efficacy of cysteine peptide change [5] | AC50 [7] [µM] | SMILES | AC50 of IL-8 secretion induction (THP-1 [1]) [µM] | cytotoxicity AC50 [2] [µM] | efficacy of IL-8 induction (THP-1 [3]) | efficacy of ARE luciferase induction [6] | AC50 of Nrf2/ARE luciferase induction [8] [µM]
-5.24 ± 15 | 1.78 ± 13 |  | CCN(CC)c1ccc(C(=O)c2ccccc2C(=O)O)c(O)c1 [2-[4-(Diethylamino)-2-hydroxybenzoyl]benzoic acid] | 38.4 | 30.5 ± 2 | 75.5 ± 11 | 56.6 ± 46 | 
-94.5 ± 3.8 | -98.9 ± 3.5 | 0.88 ± 0.21 | CCCCCCCCn1sc(Cl)c(Cl)c1=O [4,5-Dichloro-2-octyl-3(2H)-isothiazolone] | 11.7 | 12.1 ± 0.79 | 50.1 ± 4.7 | -41.3 ± 5.3 | 
1.57 ± 29 | -101 ± 5.4 | 3.84 ± 0.25 | CN(C)c1ccc(SC#N)cc1 [4-(Dimethylamino)phenylthiocyanate] |  | 65 ± 18 | 87.8 ± 8.9 | 73.3 ± 36 | 34.2
-10.9 ± 3 | -82.7 ± 14 | 0.16 ± 0.06 | CNc1ccc(O)cc1 [4-(Methylamino)phenol Sulfate] | 46.7 | 27.3 ± 3.8 | 8.27 ± 13 | 65.8 ± 4.2 | 
77.4 ± 23 | -46 ± 19 |  | O=C(Nc1ccccc1)c1cc(Cl)ccc1O [5-Chlorosalicylanilide] | 35.5 | 25.2 ± 2.9 | 112 ± 7.5 | -20.1 ± 52 | 
-47.7 ± 5.3 | -86.2 ± 6.7 | 19.4 ± 11 | Cc1c2ccccc2c(C)c2c1ccc1ccccc12 [7,12-Dimethylbenzanthracene] |  | 57 ± 12 | 129 ± 15 | 69 ± 29 | 29.6
9.43 ± 16 | 5.74 ± 9.9 |  | CC1COc2ccccc2N1C(=O)C(Cl)Cl (configuration not stated) [Benoxacor] | 79.8 | 46.5 ± 3.1 | 136 ± 40 | 33.2 ± 15 | 
182 ± 33 | -58.7 ± 20 | 38.4 ± 2.5 | N=C1C=CC(=C(c2ccc(N)cc2)c2ccc(N)cc2)C=C1 [C.I. Basic Red 9 monohydrochloride] | 44.7 | 34.2 ± 2.2 | 100 ± 9.3 | 38.6 ± 64 | 
12.2 ± 14 | -95.5 ± 18 | 79.8 ± 9.2 | COc1ccc(C(=O)/C(Br)=C\C(=O)O)cc1 [Cytembena] |  | 57 ± 12 | 33.2 ± 4.5 | 417 ± 100 | 37.1
-21.7 ± 10 | -92.2 ± 5 | 0.9 ± 0.1 | COc1cccc2c1C(=O)c1c(O)c3c(c(O)c1C2=O)C[C@@](O)(C(=O)CO)C[C@@H]3O[C@H]1C[C@H](N)[C@H](O)[C@H](C)O1 [Doxorubicin*] |  | 11.3 ± 1.3 | 31.2 ± 4.9 | 860 ± 140 | 7.94
-51.8 ± 5.7 | -100 ± 11 | 9.27 ± 3.2 | CC/C=C\C/C=C\C/C=C\CCCCCCCC(=O)OCC [Ethyl linolenate] |  | 32.9 ± 2.2 | 14.7 ± 5.5 | 95.1 ± 71 | 18.4
35 ± 23 | -113 ± 17 | 40 ± 4.6 | c1ccc(CCNc2nc(-c3ccccc3)cs2)cc1 [Fanetizole] |  | 41.4 ± 2.8 | 45.8 ± 14 | 119 ± 37 | 33.2
33.8 ± 41 | 0 |  | COC(=O)Nc1nc2cc(Sc3ccccc3)ccc2[nH]1 [Fenbendazole] | 39.8 | 3.46 ± 1.9 | 213 ± 14 | 46 ± 53 | 
0 | -49.3 ± 1.9 | 18.7 ± 3.4 | O=[N+]([O-])c1cc(N(CCO)CCO)ccc1NCCO [HC Blue 2] | 66.8 |  | 38.4 ± 82 | 0 | 
50.4 ± 6.8 | 0 |  | CCCOc1ccc2[nH]c(NC(=O)OC)nc2c1 [Oxibendazole] | 27.7 | 2.73 ± 0.38 | 36.3 ± 9.3 | 30.2 ± 9.6 | 
1.32 ± 18 | -72.8 ± 22 | 80.8 ± 18 | O=C(/C=C/C=C/c1ccc2c(c1)OCO2)N1CCCCC1 [Piperine] |  | 44 ± 11 | 13.7 ± 14 | 76 ± 12 | 29.1
-33.9 ± 4.4 | -101 ± 3.8 | 3.01 ± 1.5 | COc1cccc2c1C(=O)c1c(O)c3c(c(O)c1C2=O)C[C@@](O)(C(=O)CO)C[C@@H]3O[C@H]1C[C@H](N)[C@H](O[C@@H]2CCCCO2)[C@H](C)O1 [Pirarubicin*] |  | 17.9 ± 6.5 | 21.1 ± 6.6 | 638 ± 360 | 20.5
154 ± 29 | -112 ± 9.3 | 1.59 ± 0.18 | CCCSS/C(CCO)=C(/C)N(C=O)Cc1cnc(C)nc1N [Prosultiamine] |  | 26.1 ± 1.8 | 30.5 ± 12 | 433 ± 21 | 15.8
16.7 ± 23 | -3.5 ± 6.1 |  | O=C(N/N=C/c1ccccc1O)c1ccncc1 [Salinazid] | 20 | 4.76 ± 1.3 | 45.6 ± 14 | -34.3 ± 30 | 
33.7 ± 8.7 | -93.3 ± 27 | 96.8 ± 13 | O=C(Nc1ncc([N+](=O)[O-])s1)c1cccs1 [Tenonitrozole] |  | 12.7 ± 2 | 6.75 ± 5.9 | 27.5 ± 48 | 8.8
-8.95 ± 16 | -11.2 ± 4.1 |  | Cc1ccc(O)c2ncccc12 [Tiliquinol] | 4.38 | 2.47 ± 0.62 | 117 ± 19 | -35.2 ± 3.8 | 
23.5 ± 22 | -96.9 ± 5.6 | 0.85 ± 0.38 | [Cl][Bi]([Cl])([c]1ccccc1)([c]1ccccc1)[c]1ccccc1 [Triphenylbismuthine dichloride] |  | 28.2 | 92.2 ± 110 | 95.5 ± 39 | 14.2
121 ± 16 | -13.7 ± 2.3 |  | Cc1cc(C2(c3cc(C)c(O)cc3C)OS(=O)(=O)c3ccccc32)c(C)cc1O [p-Xylenol blue] | 52.2 | 28.6 ± 6 | 45.6 ± 8.1 | 0 | 

Reference: the supplement of paper PMC10933113
